# Results taken from US10273224B2, “Substituted pyrimidine compounds, compositions and medicinal applications thereof” (JUBILANT BIOSYS LIMITED, priority 2013, dated 2019).
# Target: T1, EGFR (L858R & T790M) (Homo sapiens, UniProt P00533, L858R/T790M)
# T1 construct: GST; purchased Proqinase
# Test: EGFR (L858R & T790M) inhibition assay, HTRF method
# Details: biochemical HTRF; EGFR (T790M/L858R) 2.5 nM, ATP 5 μM, 60 min room temperature
# Description: Example 25: Biological Activity: EGFR T790M Assay Protocol
# The objective of the experiment is to find the IC50 for the compounds using HTRF method.
# Reagents for Enzyme Assay:
# 1. Enzyme Assay Buffer: 60 mM HEPES (pH 7.4), 50 mM NaCl, 20 mM MgCl2, 5 mM MnCl2, filter using 0.2 µm pore size, store at 4° C.
# Supplements (add fresh to the enzyme buffer): Make 1M DTT stock, 5% BSA stock and 0.1M Na3OV4 stored at 4° C. Enzyme assay buffer 50 ml, 1 M DTT 100 μl, 5% BSA 500 μl, 0.1M Na3OV4 50 μl.
# 2. GST-hEGFR (L858R), active: EGFR (T790M/L858R), active (Proqinase), 3.6 μM stock; 2.5 nM in final assay.
# 3. Gastrin Precusor-Biotinylated: Gastrin precursor (Tyr87) biotinylated peptide (EEAY*GWM), Cell Signaling Tech 1310, Lot-7, Want final 0.5 μM in assay
# 4. ATP: 10 mM stock in 100 μl Enzyme assay buffer pH 7.4 prepared freshly, want 5 μM in final assay.
# 5. Test compounds: Dissolve powders in 100% DMSO to a final stock concentration of 10 mM (volume in μL to add for 10 mM=mg powder×10^5/MW). Final comp concentration in the assay plate is starting at 10 μM.
# 1. HTRF buffer: 50 mM Tris-HCl, pH-7.5, 100 mM NaCl, 0.1% BSA, 0.05% Tween20, 0.5 mM EDTA, filter using 0.2 µm pore size, store at 4° C.
# Phycolink® Streptavidin-Allophycocyanin (SA-APC) Prozyme, Cat. #PJ25S, Lot #896 085, 2.06 mg/mL, APC concentration is 11.6 μM, streptavidin concentration is 15.5 μM. Want 12 nM final in assay (based on streptavidin concentration).
# 2. Europium-W1024-PT-66 Anti Phospho Tyrosine Antibody: Perkin Elmer (AD0068), monoclonal IgG1 that recognizes phospho tyrosine peptide 100 μg/ml stock. Want 0.1 nM final in assay.
# • 1. Make the compound dilution by TECAN as per the above scheme. • 2. Add 16 μl of diluted compound to the assay plate by using TECAN • 3. Add 10 μl of enzyme mix to each well except mins. • 4. Add 20 μl of substrate and ATP mix into each well of the assay plate manually. • 5. Incubate the plate at room temperature for 60 min with shaking. • 6. Meanwhile prepare the HTRF mix and add 75 μl to the HTRF plate. • 7. When the incubation is over, transfer 10 μl of the reaction mixture to the HTRF assay plate and incubate for 30 min at room temperature with shaking. • 8. Take the reading in Pherastar (ext 337 nm, em 665 & 620 nm). • 9. Analyze the results using Graphpad prism after calculation the z factor, signal window and % inhibition to get the IC50.
# Compounds having IC50<10 nM are designated as “A”; 10-100 nM are designated as “B”; and >100 nM as “C”.
# T1 sequence (P00533 25-1210 T790M/L858R): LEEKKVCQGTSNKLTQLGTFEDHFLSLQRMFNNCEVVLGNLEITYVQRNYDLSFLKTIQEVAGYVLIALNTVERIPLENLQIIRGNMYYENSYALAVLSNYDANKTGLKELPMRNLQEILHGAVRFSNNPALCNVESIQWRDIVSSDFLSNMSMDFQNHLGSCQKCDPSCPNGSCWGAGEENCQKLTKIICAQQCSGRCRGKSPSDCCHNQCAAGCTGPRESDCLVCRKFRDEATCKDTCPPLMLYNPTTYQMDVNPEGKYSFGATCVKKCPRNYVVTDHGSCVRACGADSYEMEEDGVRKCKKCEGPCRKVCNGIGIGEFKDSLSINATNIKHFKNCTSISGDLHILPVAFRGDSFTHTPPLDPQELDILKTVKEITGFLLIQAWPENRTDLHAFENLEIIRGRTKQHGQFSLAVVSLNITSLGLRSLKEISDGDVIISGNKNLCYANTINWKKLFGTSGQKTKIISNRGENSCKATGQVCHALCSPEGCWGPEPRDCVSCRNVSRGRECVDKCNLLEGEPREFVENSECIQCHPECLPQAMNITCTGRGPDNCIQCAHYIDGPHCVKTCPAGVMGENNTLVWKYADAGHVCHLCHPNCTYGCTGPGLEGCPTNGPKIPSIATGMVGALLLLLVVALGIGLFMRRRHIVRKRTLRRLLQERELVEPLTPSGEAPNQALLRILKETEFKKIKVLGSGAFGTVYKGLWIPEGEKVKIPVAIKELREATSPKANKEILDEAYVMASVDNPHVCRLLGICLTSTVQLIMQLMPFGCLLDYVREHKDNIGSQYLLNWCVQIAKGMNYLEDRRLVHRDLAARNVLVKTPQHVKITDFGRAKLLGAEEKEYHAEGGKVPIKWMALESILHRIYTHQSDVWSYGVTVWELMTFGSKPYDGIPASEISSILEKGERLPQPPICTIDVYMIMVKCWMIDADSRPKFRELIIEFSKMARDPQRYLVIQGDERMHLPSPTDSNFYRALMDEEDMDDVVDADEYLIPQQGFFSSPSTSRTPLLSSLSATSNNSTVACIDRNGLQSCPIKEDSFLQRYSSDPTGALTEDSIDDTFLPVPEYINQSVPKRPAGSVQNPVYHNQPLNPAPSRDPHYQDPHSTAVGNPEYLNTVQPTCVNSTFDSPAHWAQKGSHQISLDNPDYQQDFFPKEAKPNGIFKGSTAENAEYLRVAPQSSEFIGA
row,IC50,Structure (SMILES)
1,0.01 to 0.1 µM,"C=CC(=O)Nc1cccc(Nc2nc(Nc3cnn(C4CCC(O)C4)c3)ncc2Cl)c1 (stereo not shown) [Compound I-36, N-(3-((5-chloro-2-((1-(3-hydroxycyclopentyl)-1H-pyrazol-4-yl)amino)pyrimidin-4-yl)amino)phenyl)acrylamide]"
2,< 0.01 µM,"C=CC(=O)Nc1cccc(Nc2nc(Nc3cnn(C)c3)ncc2Cl)c1 [Compound I-19, N-(3-((5-chloro-2-((1-methyl-1H-pyrazol-4-yl)amino)pyrimidin-4-yl)amino)phenyl)acrylamide]"
3,0.01 to 0.1 µM,"C=CC(=O)Nc1cccc(Nc2nc(Nc3ncc(N4CCN(C)CC4)s3)ncc2Cl)c1 [Compound I-40, N-(3-((5-chloro-2-((5-(4-methylpiperazin-1-yl)thiazol-2-yl)amino)pyrimidin-4-yl)amino)phenyl)acrylamide]"
4,< 0.01 µM,"C=CC(=O)Nc1ccc(F)c(N(C)c2nc(Nc3cnn(C)c3)ncc2Cl)c1 [Compound I-111, N-(3-((5-chloro-2-((1-methyl-1H-pyrazol-4-yl)amino)pyrimidin-4-yl)(methyl)amino)-4-fluorophenyl)acrylamide]"
5,> 0.1 µM,"C=CC(=O)NC1CCCC(Nc2nc(Nc3cnn(C)c3)ncc2C)C1 (stereo not shown) [Compound I-100, N-(3-((5-methyl-2-((1-methyl-1H-pyrazol-4-yl)amino)pyrimidin-4-yl)amino)cyclohexyl)acrylamide]"
6,0.01 to 0.1 µM,"C=CC(=O)Nc1cccc(Nc2nc(Nc3cnn(CCOC)c3)ncc2Cl)c1 [Compound I-20, N-(3-((5-chloro-2-((1-(2-methoxyethyl)-1H-pyrazol-4-yl)amino)pyrimidin-4-yl)amino)phenyl)acrylamide]"
7,> 0.1 µM,"C=CC(=O)Nc1cc(Nc2nc(Nc3cnn(C)c3)ncc2Cl)ccc1OC1CCOC1 (stereo not shown) [Compound I-55, N-(5-((5-chloro-2-((1-methyl-1H-pyrazol-4-yl)amino)pyrimidin-4-yl)amino)-2-((tetrahydrofuran-3-yl)oxy)phenyl)acrylamide]"
8,0.01 to 0.1 µM,"C=CC(=O)Nc1cccc(Nc2nc(Nc3cnn(C4CCOCC4)c3)ncc2Cl)c1 [Compound I-45, N-(3-((5-chloro-2-((1-(tetrahydro-2H-pyran-4-yl)-1H-pyrazol-4-yl)amino)pyrimidin-4-yl)amino)phenyl)acrylamide]"
9,> 0.1 µM,"CN1CCC(n2cc(Nc3ncc(Cl)c(Nc4cccc(NC(=O)C=C5CCCC5)c4)n3)cn2)CC1 [Compound I-30, N-(3-((5-chloro-2-((1-(1-methylpiperidin-4-yl)-1H-pyrazol-4-yl)amino)pyrimidin-4-yl)amino)phenyl)-2-cyclopentylideneacetamide]"
10,< 0.01 µM,"C=CC(=O)Nc1cccc(Nc2nc(Nc3cnn(CCO)c3)ncc2Cl)c1 [Compound I-21, N-(3-((5-chloro-2-((1-(2-hydroxyethyl)-1H-pyrazol-4-yl)amino)pyrimidin-4-yl)amino)phenyl)acrylamide]"
11,> 0.1 µM,"C/C=C/C(=O)Nc1cccc(Nc2nc(Nc3cnn(C4CCN(C)CC4)c3)ncc2Cl)c1 [Compound I-51, (E)-N-(3-((5-chloro-2-((1-(1-methylpiperidin-4-yl)-1H-pyrazol-4-yl)amino)pyrimidin-4-yl)amino)phenyl)but-2-enamide]"
12,> 0.1 µM,"C=CC(=O)Nc1cccc(Nc2nc(Nc3cnn(C4CCCC(O)C4)c3)ncc2Cl)c1 (stereo not shown) [Compound I-38, N-(3-((5-chloro-2-((1-(3-hydroxycyclohexyl)-1H-pyrazol-4-yl)amino)pyrimidin-4-yl)amino)phenyl)acrylamide]"
13,0.01 to 0.1 µM,"C=CC(=O)NC1CCCC(Nc2nc(Nc3cc(C)ns3)ncc2Cl)C1 (stereo not shown) [Compound I-114, N-(3-((5-chloro-2-((3-methylisothiazol-5-yl)amino)pyrimidin-4-yl)amino)cyclohexyl)acrylamide]"
14,> 0.1 µM,"C=CC(=O)Nc1cccc(Nc2nc(Nc3cnn(C4CCC(O)C4)c3)ncc2F)c1 (stereo not shown) [Compound I-37, N-(3-((5-fluoro-2-((1-(3-hydroxycyclopentyl)-1H-pyrazol-4-yl)amino)pyrimidin-4-yl)amino)phenyl)acrylamide]"
15,> 0.1 µM,"CC(Nc1nc(Nc2cnn(C)c2)ncc1Cl)c1cccc(NC(=O)/C=C/CN(C)C)c1 (stereo not shown) [Compound I-57, (E)-N-(3-(1-((5-chloro-2-((1-methyl-1H-pyrazol-4-yl)amino)pyrimidin-4-yl)amino)ethyl)phenyl)-4-(dimethylamino)but-2-enamide]"
16,0.01 to 0.1 µM,"C=CC(=O)Nc1cccc(Nc2nc(Nc3cc(COC)n(C)n3)ncc2Cl)c1 [Compound I-24, N-(3-((5-chloro-2-((5-(methoxymethyl)-1-methyl-1H-pyrazol-3-yl)amino)pyrimidin-4-yl)amino)phenyl)acrylamide]"
17,0.01 to 0.1 µM,"C=CC(=O)Nc1cccc(Oc2nc(Nc3cnn(CC4CC4)c3)ncc2Cl)c1 [Compound I-82, N-(3-((5-chloro-2-((1-(cyclopropylmethyl)-1H-pyrazol-4-yl)amino)pyrimidin-4-yl)oxy)phenyl)acrylamide]"
18,> 0.1 µM,"C=CC(=O)NC1CCC(Nc2nc(Nc3cnn(C)c3)ncc2Cl)CC1 (stereo not shown) [Compound I-94, N-(4-((5-chloro-2-((1-methyl-1H-pyrazol-4-yl)amino)pyrimidin-4-yl)amino)cyclohexyl)acrylamide]"
19,> 0.1 µM,"C=CC(=O)Nc1ccc(F)c(Nc2nc(Nc3ncc(Cl)s3)ncc2Cl)c1 [Compound I-120, N-(3-((5-chloro-2-((5-chlorothiazol-2-yl)amino)pyrimidin-4-yl)amino)-4-fluorophenyl)acrylamide]"
20,> 0.1 µM,"CN(C)C/C=C/C(=O)NC1CCCC(Oc2nc(Nc3cnn(C)c3)ncc2Cl)C1 (single isomer, unassigned) [I-90 (Isomer 1), (E)-N-(3-((5-chloro-2-((1-methyl-1H-pyrazol-4-yl)amino)pyrimidin-4-yl)oxy)cyclohexyl)-4-(dimethylamino)but-2-enamide]"
21,0.01 to 0.1 µM,"C=CC(=O)Nc1cccc(Nc2nc(Nc3cnn(C4CCNC(=O)C4)c3)ncc2Cl)c1 (stereo not shown) [Compound I-43, N-(3-((5-chloro-2-((1-(2-oxopiperidin-4-yl)-1H-pyrazol-4-yl)amino)pyrimidin-4-yl)amino)phenyl)acrylamide]"
22,0.01 to 0.1 µM,"C=CC(=O)Nc1cccc(Nc2nc(Nc3cnn(C)c3)ncc2C2CC2)c1 [Compound I-76, N-(3-((5-cyclopropyl-2-((1-methyl-1H-pyrazol-4-yl)amino)pyrimidin-4-yl)amino)phenyl)acrylamide]"
23,> 0.1 µM,"C=CC(=O)Nc1ccc(F)c(Nc2nc(Nc3onc(C)c3C)ncc2Cl)c1 [Compound I-119, N-(3-((5-chloro-2-((3,4-dimethylisoxazol-5-yl)amino)pyrimidin-4-yl)amino)-4-fluorophenyl)acrylamide]"
24,> 0.1 µM,"CN(C)C/C=C/C(=O)N1CCCC(Nc2nc(Nc3cnn(C)c3)ncc2Cl)C1 (single isomer, unassigned) [II-4 (Enantiomer 2), (E)-1-(3-((5-chloro-2-((1-methyl-1H-pyrazol-4-yl)amino)pyrimidin-4-yl)amino)piperidin-1-yl)-4-(dimethylamino)but-2-en-1-one]"
25,0.01 to 0.1 µM,"C=CC(=O)Nc1cccc(Nc2nc(Nc3cnn(S(C)(=O)=O)c3)ncc2Cl)c1 [Compound I-10, N-(3-((5-chloro-2-((1-(methylsulfonyl)-1H-pyrazol-4-yl)amino)pyrimidin-4-yl)amino)phenyl)acrylamide]"
26,> 0.1 µM,"C=CC(=O)Nc1ccc(OC2CCOC2)c(Nc2nc(Nc3cnn(C)c3)ncc2Cl)c1 (stereo not shown) [Compound I-54, N-(3-((5-chloro-2-((1-methyl-1H-pyrazol-4-yl)amino)pyrimidin-4-yl)amino)-4-((tetrahydrofuran-3-yl)oxy)phenyl)acrylamide]"
27,0.01 to 0.1 µM,"C=CC(=O)Nc1cccc(Oc2nc(Nc3cnn(CCN(C)C)c3)ncc2Cl)c1 [Compound I-80, N-(3-((5-chloro-2-((1-(2-(dimethylamino)ethyl)-1H-pyrazol-4-yl)amino)pyrimidin-4-yl)oxy)phenyl)acrylamide]"

row,Structure (SMILES),IC50
1,"C=CC(=O)Nc1cccc(Nc2nc(Nc3cnn(C4CC5CCC(C4)N5C)c3)ncc2Cl)c1 (stereo not shown) [Compound I-48, N-(3-((5-chloro-2-((1-(8-methyl-8-azabicyclo[3.2.1]octan-3-yl)-1H-pyrazol-4-yl)amino)pyrimidin-4-yl)amino)phenyl)acrylamide]",0.01 to 0.1 µM
